ChEMBL document CHEMBL5465560, “Selectivity Literature for EUbOPEN Chemogenomic Library” (2024)

Key:
[1] = target: T1, Serine/threonine-protein kinase Nek1 (Homo sapiens) (UniProt Q96PY6); experiment: Selectivity interaction (KinomeScan (DiscoverX)) EUB0000092b NEK1; details: at 10 µM
T1 sequence (whole entry): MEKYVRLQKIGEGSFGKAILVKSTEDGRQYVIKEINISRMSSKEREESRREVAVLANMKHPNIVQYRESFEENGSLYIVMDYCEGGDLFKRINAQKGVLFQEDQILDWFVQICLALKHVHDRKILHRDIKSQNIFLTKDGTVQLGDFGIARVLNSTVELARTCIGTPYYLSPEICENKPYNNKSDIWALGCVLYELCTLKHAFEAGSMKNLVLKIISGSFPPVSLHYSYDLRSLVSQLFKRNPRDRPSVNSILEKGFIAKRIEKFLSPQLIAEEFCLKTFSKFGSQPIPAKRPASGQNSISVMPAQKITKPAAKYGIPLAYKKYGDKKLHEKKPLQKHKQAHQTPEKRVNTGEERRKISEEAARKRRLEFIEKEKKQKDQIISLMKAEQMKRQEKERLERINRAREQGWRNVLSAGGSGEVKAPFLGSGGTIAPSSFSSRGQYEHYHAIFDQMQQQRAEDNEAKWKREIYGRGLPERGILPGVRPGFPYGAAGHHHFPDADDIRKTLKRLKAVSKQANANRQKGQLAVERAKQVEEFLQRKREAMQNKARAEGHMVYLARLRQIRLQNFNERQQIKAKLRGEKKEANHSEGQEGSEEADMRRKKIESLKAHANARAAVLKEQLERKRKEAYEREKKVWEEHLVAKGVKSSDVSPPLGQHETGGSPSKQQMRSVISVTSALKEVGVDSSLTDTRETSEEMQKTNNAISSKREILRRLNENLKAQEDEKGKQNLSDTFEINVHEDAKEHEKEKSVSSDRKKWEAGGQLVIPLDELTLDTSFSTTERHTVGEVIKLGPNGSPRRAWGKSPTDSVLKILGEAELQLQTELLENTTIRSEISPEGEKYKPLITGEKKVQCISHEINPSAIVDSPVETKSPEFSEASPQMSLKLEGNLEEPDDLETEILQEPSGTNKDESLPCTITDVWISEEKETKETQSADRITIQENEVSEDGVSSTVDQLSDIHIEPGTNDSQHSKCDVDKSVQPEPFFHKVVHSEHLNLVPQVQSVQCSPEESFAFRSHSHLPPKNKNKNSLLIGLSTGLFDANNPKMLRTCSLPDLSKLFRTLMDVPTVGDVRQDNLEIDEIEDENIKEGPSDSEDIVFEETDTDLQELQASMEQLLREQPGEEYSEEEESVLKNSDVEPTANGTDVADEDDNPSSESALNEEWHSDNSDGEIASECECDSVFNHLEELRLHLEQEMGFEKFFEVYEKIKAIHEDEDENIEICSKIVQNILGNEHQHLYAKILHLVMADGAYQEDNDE

[2] = target: T2, Phosphatidylinositol 4,5-bisphosphate 3-kinase catalytic subunit delta isoform (Homo sapiens) (UniProt O00329); experiment: Selectivity interaction (KinomeScan (DiscoverX)) EUB0000092b PIK3CD; details: at 10 µM
T2 sequence (whole entry): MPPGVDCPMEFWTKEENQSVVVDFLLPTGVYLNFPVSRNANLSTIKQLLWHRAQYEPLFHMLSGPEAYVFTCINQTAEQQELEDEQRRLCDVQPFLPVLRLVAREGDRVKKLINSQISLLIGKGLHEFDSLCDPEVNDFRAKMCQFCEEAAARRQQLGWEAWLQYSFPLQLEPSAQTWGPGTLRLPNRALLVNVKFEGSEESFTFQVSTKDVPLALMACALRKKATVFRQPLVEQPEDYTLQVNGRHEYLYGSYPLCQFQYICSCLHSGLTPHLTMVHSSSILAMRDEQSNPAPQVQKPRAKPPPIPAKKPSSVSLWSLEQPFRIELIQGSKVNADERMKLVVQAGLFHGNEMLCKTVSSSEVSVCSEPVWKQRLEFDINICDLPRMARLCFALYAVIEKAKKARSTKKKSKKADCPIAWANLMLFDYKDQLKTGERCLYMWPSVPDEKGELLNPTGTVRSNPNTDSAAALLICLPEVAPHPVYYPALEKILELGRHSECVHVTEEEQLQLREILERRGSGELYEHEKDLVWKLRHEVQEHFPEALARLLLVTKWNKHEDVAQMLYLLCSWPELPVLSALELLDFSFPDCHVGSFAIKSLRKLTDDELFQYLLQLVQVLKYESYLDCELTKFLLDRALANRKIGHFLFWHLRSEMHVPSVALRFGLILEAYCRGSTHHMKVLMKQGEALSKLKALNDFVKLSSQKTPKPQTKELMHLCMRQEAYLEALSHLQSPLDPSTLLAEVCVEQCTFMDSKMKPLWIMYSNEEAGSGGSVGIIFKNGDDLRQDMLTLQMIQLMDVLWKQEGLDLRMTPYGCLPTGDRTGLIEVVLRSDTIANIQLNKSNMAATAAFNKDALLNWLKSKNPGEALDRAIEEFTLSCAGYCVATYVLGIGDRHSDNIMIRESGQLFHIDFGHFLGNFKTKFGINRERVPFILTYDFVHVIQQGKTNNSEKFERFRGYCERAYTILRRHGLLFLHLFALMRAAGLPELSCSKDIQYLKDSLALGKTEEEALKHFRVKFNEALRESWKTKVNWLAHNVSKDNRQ

## CCC(=O)N1CCN(c2ccc(-n3c(=O)ccc4cnc5ccc(-c6cnc7ccccc7c6)cc5c43)cc2C(F)(F)F)CC1
[1]
  % of control: 89%
[2]
  % of control: 51%
